This note sets out measurements from patent US10206397B2, “N-acylimino heterocyclic compounds” (BASF SE, priority 2013, dated 2019).

Each structure is given as a SMILES string. Bounds are passed on as bounds.

Holding throughout (format): in vivo
For experiment [1], the system named is green peach aphid (Myzus persicae). Description: Green peach aphid systemic test, artificial diet in 96-well microtiter plates. As to conditions: 72 h, read-out: mortality in comparison with untreated controls. The text has this: B.1 Green Peach Aphid (Myzus persicae)
For evaluating control of green peach aphid (Myzus persicae) through systemic means, the test unit consists of 96-well-microtiter plates containing liquid artificial diet under an artificial membrane.
The compounds are formulated using a solution containing 75% v/v water and 25% v/v DMSO. Different concentrations of formulated compounds are pipetted into the aphid diet, using a custom built pipetter, at two replications.
After application, 5-8 adult aphids are placed on the artificial membrane inside the microtiter plate wells. The aphids are then allowed to suck on the treated aphid diet and incubated at about 23+1° C. and about 50+5% relative humidity for 3 days. Aphid mortality and fecundity is then visually assessed.

Experiment [2] has as its system Rice Green Leafhopper (Nephotettix virescens). Description: Rice green leafhopper spray test on rice seedlings. The following applies: 72 h, read-out: mortality in comparison with untreated controls. How it is done: B.7 Rice Green Leafhopper (Nephotettix virescens)
Rice seedlings are cleaned and washed 24 hours before spraying. The active compounds are formulated in 50:50 acetone:water (vol:vol), and 0.1% vol/vol surfactant (EL 620) is added. Potted rice seedlings are sprayed with 5 ml test solution, air dried, placed in cages and inoculated with 10 adults. Treated rice plants are kept at about 28-29° C. and relative humidity of about 50-60%. Percent mortality is recorded after 72 hours.

In experiment [3] the test system is Green Soldier Stink Bug (Nezara viridula). Description: Green soldier stink bug spray test on soybean pods. As to conditions: 120 h, sprayed soybean pods, 3rd instar, 5 days, read-out: mortality in comparison with untreated controls. The method, then:
B.10 Green Soldier Stink Bug (Nezara viridula)
The active compound is dissolved at the desired concentration in a mixture of 1:1 (vol:vol) distilled water:aceteone. Surfactant (Kinetic HV) is added at a rate of 0.01% (vol/vol). The test solution is prepared at the day of use.
Soybean pods were placed in microwavable plastic cups lined with moist filter paper and inoculated with ten 3rd instar N. viridula. Using a hand atomizer, approximately 2 ml solution is sprayed into each cup. Treated cups were kept at about 28-29° C. and relative humidity of about 50-60%. Percent mortality was recorded after 5 days.

In experiment [4] the test system is Cowpea Aphid (Aphis craccivora). Description: Cowpea aphid spray test on potted cowpea plants. As to conditions: 72 h, read-out: mortality in comparison with untreated controls. How it is done: B.4 Cowpea Aphid (Aphis craccivora)
(§1) The active compound is dissolved at the desired concentration in a mixture of 1:1 (vol:vol) distilled water:acetone. Surfactant (Alkamuls® EL 620) is added at a rate of 0.1% (vol/vol). The test solution is prepared at the day of use.
Potted cowpea plants are colonized with approximately 50-100 aphids of various stages by manually transferring a leaf tissue cut from infested plant 24 hours before application. Plants are sprayed after the pest population has been recorded. Treated plants are maintained on light carts at about 28° C. Percent mortality is assessed after 72 hours.

For experiment [5], the system named is vetch aphid (Megoura viciae). Description: Vetch aphid contact/systemic test on broad bean leaf disks. The following applies: foliar, 120 h, read-out: mortality in comparison with untreated controls. The method, then:
B.2 Vetch Aphid (Megoura viciae)
For evaluating control of vetch aphid (Megoura viciae) through contact or systemic means the test unit consisted of 24-well-microtiter plates containing broad bean leaf disks.
The compounds were formulated using a solution containing 75% v/v water and 25% v/v DMSO. Different concentrations of formulated compounds were sprayed onto the leaf disks at 2.5 μl, using a custom built micro atomizer, at two replications.
After application, the leaf disks were air-dried and 5-8 adult aphids were placed on the leaf disks inside the microtiter plate wells. The aphids were then allowed to suck on the treated leaf disks and were incubated at about 23±1° C. and about 50±5% relative humidity for 5 days. Aphid mortality and fecundity was then visually assessed.

For experiment [6], the system named is Rice Brown Plant Hopper (Nilaparvata lugens). Description: Rice brown plant hopper spray test on rice seedlings. As to conditions: 72 h, read-out: mortality in comparison with untreated controls. How it is done: B.8 Rice Brown Plant Hopper (Nilaparvata lugens)
Rice seedlings are cleaned and washed 24 hours before spraying. The active compounds is formulated in 50:50 acetone:water (vol:vol) and 0.1% vol/vol surfactant (EL 620) was added. Potted rice seedlings are sprayed with 5 ml test solution, air dried, placed in cages and inoculated with 10 adults. Treated rice plants are kept at about 28-29° C. and relative humidity of about 50-60%. Percent mortality is recorded after 72 hours.

Experiment [7] relates to Orchid Thrips (dichromothrips corbetti). Description: Orchid thrips floral-immersion test. The following applies: 72 h, read-out: mortality in comparison with untreated controls. The method, then: B.6 Orchid Thrips (dichromothrips corbetti)
Dichromothrips corbetti adults used for bioassay are obtained from a colony maintained continuously under laboratory conditions. For testing purposes, the test compound is diluted in a 1:1 mixture of acetone:water (vol:vol), plus 0.01% vol/vol Alkamuls® EL 620 surfactant.
Thrips potency of each compound is evaluated by using a floral-immersion technique. Plastic petri dishes are used as test arenas. All petals of individual, intact orchid flowers are dipped into treatment solution and allowed to dry. Treated flowers are placed into individual petri dishes along with about 20 adult thrips. The petri dishes are then covered with lids. All test arenas are held under continuous light and a temperature of about 28° C. for duration of the assay. After 3 days, the numbers of live thrips are counted on each flower, and along inner walls of each petri dish. The percent mortality is recorded 72 hours after treatment.

Experiment [8] has as its system Cotton aphid (Aphis gossypii). Description: Cotton aphid spray test on potted plants. The following applies: 72 h, read-out: mortality in comparison with untreated controls. How it is done:
B.3 Cotton aphid (Aphis gossypii)
as §1
Potted cowpea plants were colonized with approximately 50-100 aphids of various stages by manually transferring a leaf tissue cut from infested plant 24 hours before application. Plants were sprayed after the pest population has been recorded. Treated plants are maintained on light carts at about 28° C. Percent mortality was assessed after 72 hours.

Experiment [9] relates to Silverleaf Whitefly (bemisia argentifolii). Description: Silverleaf whitefly spray test on cotton plants. As to conditions: 72 h, read-out: mortality in comparison with untreated controls. The source says: B.5 Silverleaf Whitefly (bemisia argentifolii)
The active compounds are formulated in cyclohexanone as a 10,000 ppm solution supplied in tubes. The tubes are inserted into an automated electrostatic sprayer equipped with an atomizing nozzle and they serve as stock solutions for which lower dilutions are made in 50% acetone:50% water (v/v). A nonionic surfactant (Kinetic®) is included in the solution at a volume of 0.01% (v/v).
Cotton plants at the cotyledon stage (one plant per pot) are sprayed by an automated electrostatic plant sprayer equipped with an atomizing spray nozzle. The plants are dried in the sprayer fume hood and then removed from the sprayer. Each pot is placed into a plastic cup and about 10 to 12 whitefly adults (approximately 3-5 days old) are introduced. The insects are collected using an aspirator and a nontoxic Tygon® tubing connected to a barrier pipette tip. The tip, containing the collected insects, is then gently inserted into the soil containing the treated plant, allowing insects to crawl out of the tip to reach the foliage for feeding. Cups are covered with a reusable screened lid. […] Mortality is assessed 3 days after treatment, compared to untreated control plants.

Experiment [10] deals with Diamond Back Moth (Plutella xylostella). Description: Diamond back moth cabbage leaf dip test. As to conditions: foliar, 72 h, read-out: mortality in comparison with untreated controls. How it is done:
B.9 Diamond Back Moth (Plutella xylostella)
The active compound is dissolved at the desired concentration in a mixture of 1:1 (vol:vol) distilled water:aceteone. Surfactant (Alkamuls® EL 620) is added at a rate of 0.1% (vol/vol). The test solution is prepared at the day of use.
Leaves of cabbage were dipped in test solution and air-dried. Treated leaves were placed in petri dish eslined with moist filter paper and inoculated with ten 3rd instar larvae. Mortality was recorded 72 hours after treatment. Feeding damages were also recorded using a scale of 0-100%.

A word on the mortality: it is the share of the test organisms that died. Consider `N#CCC(=O)/N=c1\ccccn1Cc1ccc(Cl)nc1` [I.A-1], for which the mortality at 2500 ppm in [1] and in [5] was ≥ 75% throughout. In addition, the mortality at 500 ppm was ≥ 75% in [2]; > 75% in [3]; ≥ 75% in experiment [4]; ≥ 75% in experiment [6]; ≥ 75% in [7]; > 75% in experiment [8]. The mortality at 500 ppm in [9] is ≥ 75%.
Regarding `N#CC1(C(=O)/N=c2\ccccn2Cc2ccc(Cl)nc2)CC1` [I.B-1], the mortality at 2500 ppm in experiment [1] and in experiment [5] was ≥ 75% in each case. For the same compound, the mortality at 500 ppm was ≥ 75% in [2]; ≥ 75% in [4]; ≥ 75% in experiment [6]; > 75% in experiment [10]; ≥ 75% in [7].
